# Where two headings read alike, the source gives them in different places.
# How the values were obtained:
# tumor growth = assay: anti-tumor activity of GABA-linked conjugate compared to the unconjugated anticancer agent (model not given); format: in vivo; details: model not specified
# Source text: The anti-tumor activity of LOC-GABA-doxorubicin was studied in three tumor models.
# [1] = test system: Madison 109 (M109) mouse lung carcinoma
# Procedure: In all of the following in vivo experiments, the parent compound, doxorubicin, was injected intravenously (i.v.) in saline, while the fatty acid conjugates of doxorubicin were injected i.v. in 10% Cremophor® EL-P/10% ethanol/80% saline. The dosing schedule was Q3D×5.
# T-C in this assay is defined as the time in days for the drug-treated tumors to double their mass three times subtracted […] to double their mass three times.
# HT-29 human colon tumor = assay: nude mouse xenograft model of the HT-29 human colon tumor; format: in vivo; details: nude mouse
# Procedure: (§1) The dosing schedule was Q3D×5.
# In the nude mouse xenograft model of the HT-29 human colon tumor (Table 3), doxorubicin produced a T-C delay of 15.3 days at the MTD dose of 6 mg/kg, whereas P-367 (LOC-GABA-doxorubicin) produced a T-C delay of 32 days at 50 mg/kg and 22 at 25 mg/kg. Note that the activity of the lowest dose of LOC-GABA-doxorubicin is approximately equivalent to the highest, MTD of doxorubicin itself.
# [2] = Toxicology: maximum tolerated dose, i.v. Q3D×5; details: mouse, in vivo, iv, i.v. 5 times on a once every three day schedule
# Source text: as §1
# M109-Lung Tumor = M109-Lung Tumor Model (Table 5, second study with OOC-GABA-doxorubicin); format: in vivo, mouse
# Source text: as §1
# [3] = cited from earlier work
# [4] = test system: MDA-MB-435 human breast tumor; assay: nude mouse xenograft model of the MDA-MB-435 human breast tumor; format: in vivo; details: nude mouse
# Procedure: as §1
# In the nude mouse xenograft model of the MDA-MB-435 human breast tumor (Table 4), doxorubicin produced a T-C delay of 14 days at the approximate MTD dose of 6 mg/kg (1/10 drug-related deaths). In the same model, LOC-GABA-doxorubicin produced a T-C delay of 13 days at 50 mg/kg (6/10 drug-related deaths) and 1.5 days at 25 mg/kg (0 drug-related deaths).
smiles,measurement,setting,value
CC/C=C\C/C=C\C/C=C\C/C=C\C/C=C\C/C=C\CCC(=O)NCCCC(=O)O[C@H]1C[C@H]2OC[C@@]2(OC(C)=O)[C@H]2[C@H](OC(=O)c3ccccc3)[C@]3(O)C[C@H](OC(=O)[C@H](O)[C@@H](NC(=O)c4ccccc4)c4ccccc4)C(C)=C([C@@H](OC(C)=O)C(=O)[C@]12C)C3(C)C,anti-tumor activity compared to the unconjugated drug,tumor growth,did not show superior anti-tumor activity
"COc1cccc2c1C(=O)c1c(O)c3c(c(O)c1C2=O)C[C@@](O)(C(=O)CO)C[C@@H]3O[C@H]1C[C@H](N)[C@H](O)[C@H](C)O1 [Doxorubicin, reference compound]",Complete Regressions,[1]; 1 mg/kg i.v. Q3D×5,0
same,Drug-related Deaths,[1]; 1 mg/kg i.v. Q3D×5,0/5
same,Tumor Growth Delay T-C,[1]; 1 mg/kg i.v. Q3D×5,2.6 days
same,Complete Regressions,[1]; 2 mg/kg i.v. Q3D×5,0
same,Drug-related Deaths,[1]; 2 mg/kg i.v. Q3D×5,0/5
same,Tumor Growth Delay T-C,[1]; 2 mg/kg i.v. Q3D×5,2.2 days
same,Complete Regressions,[1]; 4 mg/kg i.v. Q3D×5,0
same,Drug-related Deaths,[1]; 4 mg/kg i.v. Q3D×5,0/5
same,Tumor Growth Delay T-C,[1]; 4 mg/kg i.v. Q3D×5,4.0 days
same,Complete Regressions,[1]; 6 mg/kg i.v. Q3D×5,0
same,Tumor Growth Delay T-C,"[1]; 6 mg/kg i.v. Q3D×5, time for tumors to double their mass three times, treated vs vehicle",5.7 days
same,complete responses,[1]; at any dose,no complete responses
same,Complete Regressions,HT-29 human colon tumor; 2 mg/kg i.v. Q3D×5,0
same,Days Delay T-C,HT-29 human colon tumor; 2 mg/kg i.v. Q3D×5,2.2 days
same,Drug-related Deaths,HT-29 human colon tumor; 2 mg/kg i.v. Q3D×5,0/10
same,Complete Regressions,HT-29 human colon tumor; 4 mg/kg i.v. Q3D×5,0
same,Days Delay T-C,HT-29 human colon tumor; 4 mg/kg i.v. Q3D×5,4.0 days
same,Drug-related Deaths,HT-29 human colon tumor; 4 mg/kg i.v. Q3D×5,0/10
same,Complete Regressions,HT-29 human colon tumor; 6 mg/kg i.v. Q3D×5,0
same,Days Delay T-C,HT-29 human colon tumor; 6 mg/kg i.v. Q3D×5,5.7 days
same,Drug-related Deaths,HT-29 human colon tumor; 6 mg/kg i.v. Q3D×5,0/10
same,Days Delay T-C,"HT-29 human colon tumor; 6 mg/kg i.v. Q3D×5, listed as doxorubicin",15.3 days
same,MTD,[2],6 mg/kg
same,MTD,[2]; nude,~6 mg/kg
same,Complete Regressions,M109-Lung Tumor; 2 mg/kg i.v. Q3D×5,0
same,Days Delay T-C,M109-Lung Tumor; 2 mg/kg i.v. Q3D×5,0.0 days
same,Drug-related Deaths,M109-Lung Tumor; 2 mg/kg i.v. Q3D×5,0/5
same,Complete Regressions,M109-Lung Tumor; 4 mg/kg i.v. Q3D×5,0
same,Days Delay T-C,M109-Lung Tumor; 4 mg/kg i.v. Q3D×5,1.4 days
same,Drug-related Deaths,M109-Lung Tumor; 4 mg/kg i.v. Q3D×5,0/5
same,Complete Regressions,M109-Lung Tumor; 6 mg/kg i.v. Q3D×5,0
same,Days Delay T-C,M109-Lung Tumor; 6 mg/kg i.v. Q3D×5,0.9 days
same,Drug-related Deaths,M109-Lung Tumor; 6 mg/kg i.v. Q3D×5,0/5
same,Complete Regressions,M109-Lung Tumor; 8 mg/kg i.v. Q3D×5,0
same,Days Delay T-C,M109-Lung Tumor; 8 mg/kg i.v. Q3D×5,4.6 days
same,Drug-related Deaths,M109-Lung Tumor; 8 mg/kg i.v. Q3D×5,0/5
same,incidence of cardiomyopathy,[3]; cumulative dose 550 mg/m^2,7%
same,incidence of cardiomyopathy,[3]; cumulative dose 600 mg/m^2,15%
same,incidence of cardiomyopathy,[3]; cumulative dose 700 mg/m^2,30%
same,Complete Regressions,[4]; 2 mg/kg i.v. Q3D×5,0
same,Days Delay T-C,[4]; 2 mg/kg i.v. Q3D×5,0.0 days
same,Drug-related Deaths,[4]; 2 mg/kg i.v. Q3D×5,0/5
same,Complete Regressions,[4]; 4 mg/kg i.v. Q3D×5,0
same,Days Delay T-C,[4]; 4 mg/kg i.v. Q3D×5,6.6 days
same,Drug-related Deaths,[4]; 4 mg/kg i.v. Q3D×5,0/5
same,Complete Regressions,[4]; 6 mg/kg i.v. Q3D×5,0
same,Days Delay T-C,[4]; 6 mg/kg i.v. Q3D×5,14 days
same,Drug-related Deaths,[4]; 6 mg/kg i.v. Q3D×5,1/10
CCC=CCC=CCC=CCC=CCC=CCC=CCCC(=O)NCCCC(=O)OC(C(=O)OC1CC2(O)C(OC(=O)c3ccccc3)C3C4(OC(C)=O)COC4CC(O)C3(C)C(=O)C(OC(C)=O)C(=C1C)C2(C)C)C(NC(=O)c1ccccc1)c1ccccc1 (centres unmarked),anti-tumor activity compared to the unconjugated drug,tumor growth,superior activity in inhibiting tumor growth
"CCCCCCCC/C=C\CCCCCCCCOC(=O)NCCCC(=O)N[C@H]1C[C@H](O[C@H]2C[C@](O)(C(=O)CO)Cc3c(O)c4c(c(O)c32)C(=O)c2c(OC)cccc2C4=O)O[C@@H](C)[C@H]1O [OOC-GABA-doxorubicin, oleyl alcohol-GABA-doxorubicin]",Complete Regressions,M109-Lung Tumor; 50 mg/kg i.v. Q3D×5,0
same,Days Delay T-C,M109-Lung Tumor; 50 mg/kg i.v. Q3D×5,10.0 days
same,Drug-related Deaths,M109-Lung Tumor; 50 mg/kg i.v. Q3D×5,0/5
same,Complete Regressions,M109-Lung Tumor; 75 mg/kg i.v. Q3D×5,0
same,Days Delay T-C,M109-Lung Tumor; 75 mg/kg i.v. Q3D×5,8.9 days
same,Drug-related Deaths,M109-Lung Tumor; 75 mg/kg i.v. Q3D×5,0/5
same,Complete Regressions,M109-Lung Tumor; 100 mg/kg i.v. Q3D×5,0
same,Days Delay T-C,M109-Lung Tumor; 100 mg/kg i.v. Q3D×5,10.3 days
same,Drug-related Deaths,M109-Lung Tumor; 100 mg/kg i.v. Q3D×5,1/5
same,Complete Regressions,M109-Lung Tumor; 125 mg/kg i.v. Q3D×5,0
same,Drug-related Deaths,M109-Lung Tumor; 125 mg/kg i.v. Q3D×5,3/5
same,anti-tumor activity compared to doxorubicin,M109-Lung Tumor; M109 mouse lung carcinoma model,superior anti-tumor activity

# Reference: patent US20120148595A1, “GABA-LINKED ANTHRACYCLINE-LIPID CONJUGATES” (Luitpold Pharmaceuticals, Inc., priority 2009, published 2012)
